Source: publication PMC10140581, “Development and evaluation of novel artemisinin-isatin hybrids with potential anti-leukemic cytotoxicity” (Frontiers in Oncology, 2023)

Assays:
[1] = test system: CCRF-CEM human acute lymphoblastic leukemia cell line; assay: MTT antiproliferative assay, CCRF-CEM; assay type: cell-based
Experimental: (§1) The antiproliferative activity and cytotoxicity of ester tethered ART-isatin hybrids 7a-u against human myeloid leukemia cell lines (K562 CM-0130 purchased from Procell and K562/ADR AW-CELLS-H0187 purchased from AnWei-sci), human acute lymphoblastic leukemia cell line (CCRF-CEM CL-0058 purchased from Procell) as well as cytotoxicity towards normal human peripheral blood mononuclear cells (PBMCs 230470, purchased from Mingzhoubio) were assessed by 3-(4,5-dimethylthiazol-2-yl)-2,5-diphenyltetrazolium bromide (MTT) assay.
(§2) Medium in wells was replaced after 24 h with fresh medium containing the tested compounds in DMSO (1% v/v) and incubated for 72 h. […] 3-(4,5-dimethyl-2-thiazolyl)-2,5-diphenyltetrazolium bromide (MTT) solution (10 µL) was added to each well, and the cultures were incubated for an additional 4 h at 37°C. A further 100 µL of […] was added and incubation continued overnight at 37°C. The absorbance at 540 nm was determined in each well with a 96-well plate reader. The growth of the treated cells was compared with that of untreated cells. Half maximum inhibitory concentration (IC50) is a measurement of the efficacy of a substance in inhibiting a specific biological or biochemical process. […] In this experiment, the dose-response curve constructed by Spss22.0 software was used to calculate the inhibitory effect of the hybrid (0 μM-100 μM) on the activity of leukemia cell lines. Each experiment was performed independently in triplicate with three tests in each, and results were reported as mean inhibitory concentration IC50.

[2] = test system: K562 human myeloid leukemia cell line; assay: MTT antiproliferative assay, K562; assay type: cell-based
Experimental: as §1, §2

[3] = test system: K562/ADR human myeloid leukemia cell line; assay: MTT antiproliferative assay, K562/ADR; assay type: cell-based
Experimental: as §1, with “assay. The antiproliferative activity was expressed by half maximal inhibitory concentration (IC50) values, which were presented in Table 2 .” for “assay.”
as §2

[4] = MTT cytotoxicity assay, normal PBMCs; assay type: cell-based, human; conditions: normal peripheral blood mononuclear cells (PBMCs); MTT assay, normal human PBMCs
Experimental: as §1

[5] = test system: normal human peripheral blood mononuclear cells (PBMCs); assay: MTT cytotoxicity assay, normal PBMCs; assay type: cell-based; conditions: PBMCs vs CCRF-CEM
Experimental: as §1

| IC50 [1] | IC50 [2] | IC50 [3] | Compound | IC50 [4] | SI, Selectivity index, IC50(PBMCs)/IC50(CCRF-CEM) [5] |
| --- | --- | --- | --- | --- | --- |
| 2.45 µM | > 100 µM | > 100 µM | COc1ccc2c(c1)C(=NOCc1ccccc1)C(=O)N2CCCC(=O)OC1O[C@@H]2O[C@@]3(C)CC[C@H]4[C@H](C)CC[C@@H]([C@H]1C)[C@@]24OO3 (stereo partly drawn) [hybrid 7u, (3R,5aS,6R,8aS,9R,12R,12aR)-3,6,9-trimethyldecahydro-12H-3,12-epoxy[1,2]dioxepino[4,3-i]isochromen-10-yl 4-(3-[(benzyloxy)imino)-5-methoxy-2-oxoindolin-1-yl]butanoate] | > 100 µM | >40.81 |
| 18.6 µM | 49.8 µM | > 100 µM | CON=C1C(=O)N(CCCC(=O)OC2O[C@@H]3O[C@@]4(C)CC[C@H]5[C@H](C)CC[C@@H]([C@H]2C)[C@@]35OO4)c2ccc(F)cc21 (stereo partly drawn) [hybrid 7p, (3R,5aS,6R,8aS,9R,12R,12aR)-3,6,9-trimethyldecahydro-12H-3,12-epoxy[1,2]dioxepino[4,3-i]isochromen-10-yl 4-(3-(methoxyimino)-5-fluoro-2-oxoindolin-1-yl)butanoate] | > 100 µM | >5.36 |
| 3.82 µM | > 100 µM | > 100 µM | CON=C1C(=O)N(CCCC(=O)OC2O[C@@H]3O[C@@]4(C)CC[C@H]5[C@H](C)CC[C@@H]([C@H]2C)[C@@]35OO4)c2ccc(OC)cc21 (stereo partly drawn) [hybrid 7s, (3R,5aS,6R,8aS,9R,12R,12aR)-3,6,9-trimethyldecahydro-12H-3,12-epoxy[1,2]dioxepino[4,3-i]isochromen-10-yl 4-(5-methoxy-3-(methoxyimino)-2-oxoindolin-1-yl)butanoate] | > 100 µM | >26.17 |
| > 100 µM | > 100 µM | > 100 µM | CCON=C1C(=O)N(CCCC(=O)OC2O[C@@H]3O[C@@]4(C)CC[C@H]5[C@H](C)CC[C@@H]([C@H]2C)[C@@]35OO4)c2ccccc21 (stereo partly drawn) [hybrid 7n, (3R,5aS,6R,8aS,9R,12R,12aR)-3,6,9-trimethyldecahydro-12H-3,12-epoxy[1,2]dioxepino[4,3-i]isochromen-10-yl 4-(3-(ethoxyimino)-2-oxoindolin-1-yl)butanoate] |  |  |
| 19.4 µM | > 100 µM | > 100 µM | CCON=C1C(=O)N(CCC(=O)OC2O[C@@H]3O[C@@]4(C)CC[C@H]5[C@H](C)CC[C@@H]([C@H]2C)[C@@]35OO4)c2ccc(OC)cc21 (stereo partly drawn) [hybrid 7l, (3R,5aS,6R,8aS,9R,12R,12aR)-3,6,9-trimethyldecahydro-12H-3,12-epoxy[1,2]dioxepino[4,3-i]isochromen-10-yl 3-(5-methoxy-3-(ethoxyimino)-2-oxoindolin-1-yl)propanoate] | > 100 µM | >5.16 |
| > 100 µM | > 100 µM | > 100 µM | C[C@@H]1CC[C@H]2[C@@H](C)C(OC(=O)CCCN3C(=O)C(=NOCc4ccccc4)c4ccccc43)O[C@@H]3O[C@@]4(C)CC[C@@H]1[C@]32OO4 (stereo partly drawn) [hybrid 7o, (3R,5aS,6R,8aS,9R,12R,12aR)-3,6,9-trimethyldecahydro-12H-3,12-epoxy[1,2]dioxepino[4,3-i]isochromen-10-yl 4-(3-[(benzyloxy)imino)-2-oxoindolin-1-yl]butanoate] |  |  |

Continued, molecule first:

| Compound | IC50 [1] | IC50 [2] | IC50 [3] | IC50 [4] | SI, Selectivity index, IC50(PBMCs)/IC50(CCRF-CEM) [5] |
| --- | --- | --- | --- | --- | --- |
| CON=C1C(=O)N(CC(=O)OC2O[C@@H]3O[C@@]4(C)CC[C@H]5[C@H](C)CC[C@@H]([C@H]2C)[C@@]35OO4)c2ccc(F)cc21 (stereo partly drawn) [hybrid 7c, (3R,5aS,6R,8aS,9R,12R,12aR)-3,6,9-trimethyldecahydro-12H-3,12-epoxy[1,2]dioxepino[4,3-i]isochromen-10-yl 2-(5-fluoro-3-(methoxyimino)-2-oxoindolin-1-yl)acetate] | 29.4 µM | > 100 µM | > 100 µM | > 100 µM |  |
| CON=C1C(=O)N(CCC(=O)OC2O[C@@H]3O[C@@]4(C)CC[C@H]5[C@H](C)CC[C@@H]([C@H]2C)[C@@]35OO4)c2ccc(OC)cc21 (stereo partly drawn) [hybrid 7k, (3R,5aS,6R,8aS,9R,12R,12aR)-3,6,9-trimethyldecahydro-12H-3,12-epoxy[1,2]dioxepino[4,3-i]isochromen-10-yl 3-(5-methoxy-3-(methoxyimino)-2-oxoindolin-1-yl)propanoate] | 6.74 µM | > 100 µM | > 100 µM | > 100 µM | >14.83 |
| CCON=C1C(=O)N(CCC(=O)OC2O[C@@H]3O[C@@]4(C)CC[C@H]5[C@H](C)CC[C@@H]([C@H]2C)[C@@]35OO4)c2ccccc21 (stereo partly drawn) [hybrid 7f, (3R,5aS,6R,8aS,9R,12R,12aR)-3,6,9-trimethyldecahydro-12H-3,12-epoxy[1,2]dioxepino[4,3-i]isochromen-10-yl 3-(3-(ethoxyimino)-2-oxoindolin-1-yl)propanoate] | 9.16 µM | 5.7 µM | > 100 µM | > 100 µM | >10.91 |
| CON=C1C(=O)N(CCC(=O)OC2O[C@@H]3O[C@@]4(C)CC[C@H]5[C@H](C)CC[C@@H]([C@H]2C)[C@@]35OO4)c2ccc(F)cc21 (stereo partly drawn) [hybrid 7h, (3R,5aS,6R,8aS,9R,12R,12aR)-3,6,9-trimethyldecahydro-12H-3,12-epoxy[1,2]dioxepino[4,3-i]isochromen-10-yl 3-(5-fluoro-3-(methoxyimino)-2-oxoindolin-1-yl)propanoate] | 1.31 µM | > 100 µM | 16.2 µM | > 100 µM | >76.33 |
| C[C@@H]1CC[C@H]2[C@@H](C)C(OC(=O)CCN3C(=O)C(=NOCc4ccccc4)c4ccccc43)O[C@@H]3O[C@@]4(C)CC[C@@H]1[C@]32OO4 (stereo partly drawn) [hybrid 7g, (3R,5aS,6R,8aS,9R,12R,12aR)-3,6,9-trimethyldecahydro-12H-3,12-epoxy[1,2]dioxepino[4,3-i]isochromen-10-yl 3-(3-[(benzyloxy)imino)-2-oxoindolin-1-yl]propanoate] | > 100 µM | > 100 µM | > 100 µM |  |  |
| CCON=C1C(=O)N(CCC(=O)OC2O[C@@H]3O[C@@]4(C)CC[C@H]5[C@H](C)CC[C@@H]([C@H]2C)[C@@]35OO4)c2ccc(F)cc21 (stereo partly drawn) [hybrid 7i, (3R,5aS,6R,8aS,9R,12R,12aR)-3,6,9-trimethyldecahydro-12H-3,12-epoxy[1,2]dioxepino[4,3-i]isochromen-10-yl 3-(3-(ethoxyimino)-5-fluoro-2-oxoindolin-1-yl)propanoate] | > 100 µM | 15.9 µM | > 100 µM |  |  |
| CON=C1C(=O)N(CC(=O)OC2O[C@@H]3O[C@@]4(C)CC[C@H]5[C@H](C)CC[C@@H]([C@H]2C)[C@@]35OO4)c2ccccc21 (stereo partly drawn) [hybrid 7a, (3R,5aS,6R,8aS,9R,12R,12aR)-3,6,9-trimethyldecahydro-12H-3,12-epoxy[1,2]dioxepino[4,3-i]isochromen-10-yl 2-(3-(methoxyimino)-2-oxoindolin-1-yl)acetate] | 3.83 µM | 33.6 µM | 49.8 µM | > 100 µM | >26.10 |
| O=C(CCCCCCC(=O)Nc1ccccc1)NO [Vorinostat, reference compound] |  |  | 2.18 µM |  |  |
| C[C@@H]1CC[C@H]2[C@@H](C)C(=O)O[C@@H]3O[C@@]4(C)CC[C@@H]1[C@]32OO4 [ART, Artemisinin] | > 100 µM | > 100 µM | > 100 µM |  |  |
| C[C@@H]1CC[C@H]2[C@@H](C)C(OC(=O)CN3C(=O)C(=NOCc4ccccc4)c4ccccc43)O[C@@H]3O[C@@]4(C)CC[C@@H]1[C@]32OO4 (stereo partly drawn) [hybrid 7b, (3R,5aS,6R,8aS,9R,12R,12aR)-3,6,9-trimethyldecahydro-12H-3,12-epoxy[1,2]dioxepino[4,3-i]isochromen-10-yl 2-(3-[(benzyloxy)imino)-2-oxoindolin-1-yl]acetate] | > 100 µM | > 100 µM | > 100 µM |  |  |
| C[C@@H]1CC[C@H]2[C@@H](C)C(OC(=O)CCN3C(=O)C(=NOCc4ccccc4)c4cc(F)ccc43)O[C@@H]3O[C@@]4(C)CC[C@@H]1[C@]32OO4 (stereo partly drawn) [hybrid 7j, (3R,5aS,6R,8aS,9R,12R,12aR)-3,6,9-trimethyldecahydro-12H-3,12-epoxy[1,2]dioxepino[4,3-i]isochromen-10-yl 3-(3-[(benzyloxy)imino)-5-fluoro-2-oxoindolin-1-yl]propanoate] | > 100 µM | > 100 µM | 3.83 µM |  |  |
